US20260022142A1, “MACROCYCLIC IMMUNOMODULATORS” (Bristol-Myers Squibb Company, priority 2022, published 2026)
pIC50: −log10 of the molar value. Numbered stars: 1 amine (or outer) side, 2 acyl side, 3 side chain; on linkers, the order of the positions; unused ones are H or OH. Bridge positions count the residues as written; N and C are the ends. Square brackets hold non-standard residues; d marks the D form. Peptide text beside a SMILES is read from it. * marks the point of attachment. ξ: configuration not given here. Phe(4-COOH) = N[C@@H](Cc1ccc(C(=O)O)cc1)C(=O)O; Bip = N[C@@H](Cc1ccc(-c2ccccc2)cc1)C(=O)O; Phe(3-Me) = Cc1cccc(C[C@H](N)C(=O)O)c1; Phe(4-Me) = Cc1ccc(C[C@H](N)C(=O)O)cc1; Val(3-OH) = CC(C)(O)[C@H](N)C(=O)O; mTyr = N[C@@H](Cc1cccc(O)c1)C(=O)O; X6 = O=C(Cc1ccc(CN[*:1])cc1)[*:2]; 4Pal = N[C@@H](Cc1ccncc1)C(=O)O; Cha = N[C@@H](CC1CCCCC1)C(=O)O; Cit = NC(=O)NCCC[C@H](N)C(=O)O; Thr(3ξ) = CC(O)[C@H](N)C(=O)O; dOrn = NCCC[C@@H](N)C(=O)O; dDab = NCC[C@@H](N)C(=O)O; Carboxymethyl = O=C(O)C*; Orn = NCCC[C@H](N)C(=O)O; Aun = NCCCCCCCCCCC(=O)O; Dab = NCC[C@H](N)C(=O)O; Dap = NC[C@H](N)C(=O)O; AEEA = NCCOCCOCC(=O)O; Ac3c = NC1(C(=O)O)CC1

target: T1, PD-1/PD-L1 interaction (PE-labeled human PD-L1-Ig binding to Jurkat cell line over-expressing human PD-1) (Homo sapiens, UniProt Q15116); assay: Jurkat-PD-1 Cell Binding High-Content Screening Assay (CBA); assay type: cell-based; details: Jurkat cell line over-expressing human PD-1; PE-labeled PD-L1-Ig 20 nM final; read-out: Jurkat hPD1-PDL1 IC50
T1 construct: expressed in transfected cells; host or cells: Jurkat
T1 sequence (Q15116 25-288): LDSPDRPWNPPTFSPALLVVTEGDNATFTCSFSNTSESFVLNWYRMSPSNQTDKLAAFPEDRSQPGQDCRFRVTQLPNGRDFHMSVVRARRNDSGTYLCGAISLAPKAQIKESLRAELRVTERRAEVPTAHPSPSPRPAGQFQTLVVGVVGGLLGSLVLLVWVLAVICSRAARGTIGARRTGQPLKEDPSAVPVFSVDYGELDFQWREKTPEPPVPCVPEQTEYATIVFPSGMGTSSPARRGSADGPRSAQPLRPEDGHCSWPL
In short: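 Binding of fluorescent PD-L1-Ig (20 nM final) to Jurkat-PD-1 cells was measured by automated imaging after 1 h, following a 2 h compound pre-treatment at 37° C.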

Row | SMILES | pIC50
1 | CC(C)C[C@H]1NC(=O)[C@H](CCCN)NC(=O)[C@H](Cc2ccc(O)cc2)NC(=O)[C@H](Cc2ccc(-c3ccccc3)cc2)NC(=O)[C@H](Cc2ccc(O)cc2)NC(=O)[C@H](Cc2cccc(O)c2)NC(=O)[C@H](CC(=O)O)NC(=O)[C@H](Cc2ccc(OCC(=O)O)cc2)NC(=O)[C@H](CN)NC(=O)CSC[C@@H](C(=O)N[C@@H](CCN)C(=O)NCCCCCCCCCCC(=O)O)NC(=O)[C@@H](CCN)NC(=O)[C@H](C(C)C)NC(=O)[C@H](CC2CCCCC2)NC(=O)[C@H](CCN)NC1=O [Compound 2079] ({CH2CO}-[Dap]Y(Carboxymethyl)D[mTyr]Y[Bip]Y[Orn][dL][Dab][Cha]V[dDab]C[Dab][Aun]-OH; thioether N-14) | 6.61
2 | Cc1cccc(C[C@@H]2NC(=O)[C@H](CC(=O)O)NC(=O)[C@H](Cc3ccc(OCC(=O)O)cc3)NC(=O)[C@H](CCCNC(=N)N)NC(=O)CSC[C@@H](C(=O)N[C@@H](CCN)C(=O)NCCCCCCCCCCC(=O)O)NC(=O)[C@H]([C@@H](C)O)NC(=O)[C@H](C(C)C)NC(=O)[C@H](CC3CCCCC3)NC(=O)[C@H](CCN)NC(=O)[C@@H](CC(C)C)NC(=O)[C@H](CCCN)NC(=O)[C@H](Cc3ccc(OCC(=O)O)cc3)NC(=O)[C@H](Cc3ccc(-c4ccccc4)cc3)NC(=O)[C@H](C(C)(C)O)NC2=O)c1 [Compound 2109] ({CH2CO}-RY(Carboxymethyl)D[Phe(3-Me)][Val(3-OH)][Bip]Y(Carboxymethyl)[Orn][dL][Dab][Cha]VTC[Dab][Aun]-OH; thioether N-14) | 7.65
3 | Cc1cccc(C[C@@H]2NC(=O)[C@H](CC(=O)O)NC(=O)[C@H](Cc3ccncc3)NC(=O)[C@H](Cc3ccc(OCC(=O)O)cc3)NC(=O)CSC[C@@H](C(=O)NCCOCCOCC(=O)N[C@@H](CCN)C(=O)NCCCCCCCCCCC(=O)O)NC(=O)[C@H]([C@@H](C)O)NC(=O)[C@H](C(C)C)NC(=O)[C@H](CC3CCCCC3)NC(=O)[C@H](CCN)NC(=O)[C@@H](CC(C)C)NC(=O)[C@H](CCCN)NC(=O)[C@H](C(C)C)NC(=O)[C@H](Cc3ccc(-c4ccccc4)cc3)NC(=O)[C@H](C(C)C)NC2=O)c1 [Compound 1170] ({CH2CO}-Y(Carboxymethyl)[4Pal]D[Phe(3-Me)]V[Bip]V[Orn][dL][Dab][Cha]VTC[AEEA][Dab][Aun]-OH; thioether N-14) | 7.42
4 | Cc1cccc(C[C@@H]2NC(=O)[C@H](CC(=O)O)NC(=O)[C@H](Cc3ccc(C(=O)O)cc3)NC(=O)[C@H](Cc3ccncc3)NC(=O)CSC[C@@H](C(=O)NC3(C(=O)NCCCCCCCCCCC(=O)O)CC3)NC(=O)[C@H]([C@@H](C)O)NC(=O)[C@H](C(C)C)NC(=O)[C@H](CC3CCCCC3)NC(=O)[C@H](CCN)NC(=O)[C@@H](CC(C)C)NC(=O)[C@H](CCCN)NC(=O)[C@H](Cc3ccc(OCC(=O)O)cc3)NC(=O)[C@H](Cc3ccc(-c4ccccc4)cc3)NC(=O)[C@H](Cc3ccc(OCC(=O)O)cc3)NC2=O)c1 [Compound 2167] ({CH2CO}-[4Pal][Phe(4-COOH)]D[Phe(3-Me)]Y(Carboxymethyl)[Bip]Y(Carboxymethyl)[Orn][dL][Dab][Cha]VTC[Ac3c][Aun]-OH; thioether N-14) | 8.03
5 | CC(C)C[C@H]1NC(=O)[C@H](CCCN)NC(=O)[C@H](C(C)C)NC(=O)[C@H](Cc2ccc(-c3ccccc3)cc2)NC(=O)[C@H](C(C)C)NC(=O)[C@H](Cc2c[nH]c3ccccc23)NC(=O)[C@H](CC(=O)O)NC(=O)[C@H](Cc2ccc(OCC(=O)O)cc2)NC(=O)[C@H](Cc2ccc(OCC(=O)O)cc2)NC(=O)CSC[C@@H](C(=O)N[C@@H](CCCCN)C(=O)NCCCCCCCCCCC(=O)O)NC(=O)[C@H](CCCN)NC(=O)[C@H](C(C)C)NC(=O)[C@H](CC2CCCCC2)NC(=O)[C@H](CCN)NC1=O [Compound 2537] ({CH2CO}-Y(Carboxymethyl)Y(Carboxymethyl)DWV[Bip]V[Orn][dL][Dab][Cha]V[Orn]CK[Aun]-OH; thioether N-14) | 7.72
6 | Cc1cccc(C[C@@H]2NC(=O)[C@H](CC(=O)O)NC(=O)[C@H](Cc3ccc(OCC(=O)O)cc3)NC(=O)[C@H](CN)NC(=O)CSC[C@@H](C(=O)NCc3ccc(CC(=O)N[C@@H](CCN)C(=O)NCCCCCCCCCCC(=O)O)cc3)NC(=O)[C@H](CN)NC(=O)[C@H](C(C)C)NC(=O)[C@H](CC3CCCCC3)NC(=O)[C@H](CCN)NC(=O)[C@@H](CC(C)C)NC(=O)[C@H](CCCN)NC(=O)[C@H](C(C)C)NC(=O)[C@H](Cc3ccc(-c4ccccc4)cc3)NC(=O)[C@H](C(C)C)NC2=O)c1 [Compound 2003] ({CH2CO}-[Dap]Y(Carboxymethyl)D[Phe(3-Me)]V[Bip]V[Orn][dL][Dab][Cha]V[Dap]C[X6][Dab][Aun]-OH; thioether N-14) | 6.87
7 | Cc1cccc(C[C@@H]2NC(=O)[C@H](CC(=O)O)NC(=O)[C@H](Cc3ccc(OCC(=O)O)cc3)NC(=O)[C@H](CN)NC(=O)CSC[C@@H](C(=O)N[C@@H](CCN)C(=O)NCCOCCOCC(=O)NCCCCCCCCCCC(=O)O)NC(=O)[C@H](CCCN)NC(=O)[C@H](C(C)C)NC(=O)[C@H](CC3CCCCC3)NC(=O)[C@H](CCN)NC(=O)[C@@H](CC(C)C)NC(=O)[C@H](CCCN)NC(=O)[C@H](Cc3ccc(C(=O)O)cc3)NC(=O)[C@H](Cc3ccc(-c4ccccc4)cc3)NC(=O)[C@H](C(C)C)NC2=O)c1 [Compound 2062] ({CH2CO}-[Dap]Y(Carboxymethyl)D[Phe(3-Me)]V[Bip][Phe(4-COOH)][Orn][dL][Dab][Cha]V[Orn]C[Dab][AEEA][Aun]-OH; thioether N-14) | 8.15
8 | Cc1ccc(C[C@@H]2NC(=O)[C@H](Cc3cccc(C)c3)NC(=O)[C@H](CC(=O)O)NC(=O)[C@H](Cc3ccc(OCC(=O)O)cc3)NC(=O)[C@H](CN)NC(=O)CSC[C@@H](C(=O)N[C@@H](CCN)C(=O)NCCOCCOCC(=O)NCCCCCCCCCCC(=O)O)NC(=O)[C@H](CCCN)NC(=O)[C@H](C(C)C)NC(=O)[C@H](CC3CCCCC3)NC(=O)[C@H](CCN)NC(=O)[C@@H](CC(C)C)NC(=O)[C@H](CCCN)NC(=O)[C@H](Cc3ccc(O)cc3)NC(=O)[C@H](Cc3ccc(-c4ccccc4)cc3)NC2=O)cc1 [Compound 2074] ({CH2CO}-[Dap]Y(Carboxymethyl)D[Phe(3-Me)][Phe(4-Me)][Bip]Y[Orn][dL][Dab][Cha]V[Orn]C[Dab][AEEA][Aun]-OH; thioether N-14) | 8.26

More lines, now with the values ahead:

Row | pIC50 | SMILES
9 | 7.95 | Cc1cccc(C[C@@H]2NC(=O)[C@H](CC(=O)O)NC(=O)[C@H](Cc3ccc(OCC(=O)O)cc3)NC(=O)[C@H](C(C)O)NC(=O)CSC[C@@H](C(=O)N[C@@H](CCN)C(=O)NCCCCCCCCCCC(=O)O)NC(=O)[C@H](CO)NC(=O)[C@H](Cc3cnc[nH]3)NC(=O)[C@H](CC3CCCCC3)NC(=O)[C@H](CCN)NC(=O)[C@@H](CC(C)C)NC(=O)[C@H](CCCN)NC(=O)[C@H](Cc3ccc(OCC(=O)O)cc3)NC(=O)[C@H](Cc3ccc(-c4ccccc4)cc3)NC(=O)[C@H](Cc3ccc(OCC(=O)O)cc3)NC2=O)c1 (stereo partly drawn) [Compound 3697] ({CH2CO}-[Thr(3ξ)]Y(Carboxymethyl)D[Phe(3-Me)]Y(Carboxymethyl)[Bip]Y(Carboxymethyl)[Orn][dL][Dab][Cha]HSC[Dab][Aun]-OH; thioether N-14)
10 | 7.71 | CC(C)C[C@H]1NC(=O)[C@H](CCCN)NC(=O)[C@H](C(C)C)NC(=O)[C@H](Cc2ccc(-c3ccccc3)cc2)NC(=O)[C@H](C(C)C)NC(=O)[C@H](Cc2c[nH]c3ccccc23)NC(=O)[C@H](CC(=O)O)NC(=O)[C@H](Cc2ccc(OCC(=O)O)cc2)NC(=O)[C@H](C(C)O)NC(=O)CSC[C@@H](C(=O)N[C@@H](CCN)C(=O)NCCCCCCCCCCC(=O)O)NC(=O)[C@H](CCCN)NC(=O)[C@H](C(C)O)NC(=O)[C@H](CC2CCCCC2)NC(=O)[C@H](CCN)NC1=O (stereo partly drawn) [Compound 3675] ({CH2CO}-[Thr(3ξ)]Y(Carboxymethyl)DWV[Bip]V[Orn][dL][Dab][Cha][Thr(3ξ)][Orn]C[Dab][Aun]-OH; thioether N-14)
11 | 7.85 | CC(=O)NCCCC[C@@H]1NC(=O)[C@H](Cc2ccc(-c3ccccc3)cc2)NC(=O)[C@H](C(C)C)NC(=O)[C@H](Cc2cccc(C)c2)NC(=O)[C@H](CC(=O)O)NC(=O)[C@H](Cc2ccc(OCC(=O)O)cc2)NC(=O)[C@H](CCCNC(=N)N)NC(=O)CSC[C@@H](C(=O)N[C@H](CCCN)C(=O)NCCCCCCCCCCC(=O)O)NC(=O)[C@H](C(C)O)NC(=O)[C@H](C(C)C)NC(=O)[C@H](CC2CCCCC2)NC(=O)[C@H](CCN)NC(=O)[C@@H](CC(C)C)NC(=O)[C@H](CCCN)NC1=O (stereo partly drawn) [Compound 3559] ({CH2CO}-RY(Carboxymethyl)D[Phe(3-Me)]V[Bip]K(Ac)[Orn][dL][Dab][Cha]V[Thr(3ξ)]C[dOrn][Aun]-OH; thioether N-14)
12 | 8.05 | Cc1cccc(C[C@@H]2NC(=O)[C@H](CC(=O)O)NC(=O)[C@H](Cc3ccc(OCC(=O)O)cc3)NC(=O)[C@H](CCCNC(=N)N)NC(=O)CSC[C@@H](C(=O)N[C@@H](CCN)C(=O)NCCCCCCCCCCC(=O)O)NC(=O)[C@H](CCC(=O)O)NC(=O)[C@H](C(C)C)NC(=O)[C@H](CC3CCCCC3)NC(=O)[C@H](CCN)NC(=O)[C@@H](CC(C)C)NC(=O)[C@H](CCN)NC(=O)[C@H](CCCNC(N)=O)NC(=O)[C@H](Cc3ccc(-c4ccccc4)cc3)NC(=O)[C@H](C(C)C)NC2=O)c1 [Compound 2778] ({CH2CO}-RY(Carboxymethyl)D[Phe(3-Me)]V[Bip][Cit][Dab][dL][Dab][Cha]VEC[Dab][Aun]-OH; thioether N-14)
13 | 7.55 | Cc1cccc(C[C@@H]2NC(=O)[C@H](CC(=O)O)NC(=O)[C@H](Cc3ccc(OCC(=O)O)cc3)NC(=O)[C@H](CN)NC(=O)CSC[C@@H](C(=O)N[C@H](C)CC(=O)NCCCCCCCCCCC(=O)O)NC(=O)[C@H]([C@@H](C)O)NC(=O)[C@H](C(C)C)NC(=O)[C@H](CC3CCCCC3)NC(=O)[C@H](CCN)NC(=O)[C@@H](CC(C)C)NC(=O)[C@H](CCCN)NC(=O)[C@H](CCCNC(N)=O)NC(=O)[C@H](Cc3ccc(-c4ccccc4)cc3)NC(=O)[C@H](C(C)C)NC2=O)c1 [Compound 2620]
